From patent EP0486045A2, “S(+)-Phenyl-alkanoic acids and alpha-amino acid containing complexes” (MEDICE Chem.-Pharm. Fabrik Pütter GmbH & Co. KG, priority 1990, dated 1992)
Where “and” joins values, the source holds several entries; their conditions need not be identical. Identical values can stand only once. Like-named read-outs stand apart in the source and are kept apart here. Values belong to the compound of their own block, whether it stands above or below them.

Key:
[1] = physchem
[2] = clinical; conditions: human, in vivo, po, 150 mg
[3] = Pharmacokinetic comparison after a single oral dose of 150 mg S-(+)-Ibuprofen, free acid tablet vs D-Lysinat (Tabelle 5); conditions: for Ae conj. I / Ae, free 1 / tlag: single oral dose 150 mg S-(+)-Ibuprofen, Mean ± SD
[4] = Adverse drug effects, laboratory parameters and medical follow-up in the study; format: in vivo, Probandinnen; conditions: up to 3 x daily 200 mg on 3 days
Text: Unerwünschte Arzneimittelwirkungen traten bei keiner Teilnehmerin an der Studie auf.

[5] = test system: primärer Dysmenorrhör; assay: Pharmacodynamics: pain intensity on a visual analogue scale (0 - 10), self-rated; format: in vivo, Probandinnen
Text: In einer monozentrienden Studie wurde die Pharmakodynamik bei primärer Dysmenorrhör an 24 Probandinnen untersucht. Die Mittelwerte aller Probandinnen als Auswertung einer Schmerzintensitätsskala sind in Tabelle 4 sowie Fig. 4 graphisch dargestellt. Die Schmerzintensität wurde anhand der visuellen Analogskala (einer von 0 - 10 offenen Skala) von den Probandinnen im Rahmen einer Selbstbeurteilung angegeben.
Wie aus Fig. 4 zu ersehen, betrug die mittlere Schmerzintensität zum Zeitpunkt Null 4,7, die analgetische Wirksamkeit setzte innerhalb von 5 Minuten ein und verminderte sich innerhalb der ersten 45 Minuten auf einen Wert von im Mittel 1,65. Die maximale analgetische Wirkung wurde nach 2 Stunden mit einem Wert von 0,36 erreicht. Anschließend stieg die Schmerzintensität bis auf einen Wert von 0,83 nach 6 Stunden wieder langsam an. Die Fig. 4 zeigt die Schmerzintensitätskurve der Probandinnen.

[6] = Pharmacokinetics of S-(+)-Ibuprofen-D-Lysinat capsules (200 mg S-(+)-Ibuprofen, oral) in 24 subjects
[7] = human, in vivo, po, 150 mg

- pKa [1]: ~12.5
Compound: N=C(N)NCCC[C@H](N)C(=O)O [Arginin]

Compound: NCCCC[C@H](N)C(=O)O [Lysin]
- pKa [1]: 10.5

Compound: CC(C)Cc1ccc([C@H](C)C(=O)O)cc1 [S-(+)-Ibuprofen, freie Säure, S-(+)-Ibuprofen]
- Cmax [2]: 10900 ng/mL
- AUC ([3]; human, in vivo, po, 150 mg): 44500 ng·h/mL
- tmax ([3]; human, in vivo, po, 150 mg): 2 h
- Ae conj. I [3]: 8,0 ± 2,9
- Ae, free 1 [3]: 0,6 ± 0,2 % of dose
- tlag [3]: 0,5 ± 0,1 h

Compound: CC(C)Cc1ccc([C@H](C)C(=O)O)cc1.NCCCC[C@@H](N)C(=O)O [S-(+)-Ibuprofen-D-Lysinat]
- unerwünschte Arzneimittelwirkungen ([4]; single or repeated intake): zu keinen unerwünschten Arzneimittelwirkungen geführt hat mit Ausnahme der bei einer Probandin aufgetretenen pseudoallergischen Reaktion
- laborchemische Parameter und ärztliche Nachuntersuchung [4]: ohne pathologischen Befund
- Ae conj. I [3]: 9,3 ± 5,4
- Ae, free 1 [3]: 0,6 ± 0,5 % of dose
- tlag [3]: 0,1 ± 0,02 h
- mittlere Schmerzintensität ([5]; Zeitpunkt Null (baseline), scale 0 - 10, mean of 24 subjects): 4,7
- mittlere Schmerzintensität ([5]; nach 2 Stunden (maximal analgesic effect), scale 0 - 10): 0,36
- mittlere Schmerzintensität ([5]; nach 6 Stunden, scale 0 - 10): 0,83
- Einsetzen der analgetischen Wirksamkeit ([5]; onset of analgesia): ≤ 5 Minuten
- mittlere Schmerzintensität ([5]; within the first 45 Minuten, scale 0 - 10): 1,65
- AUC (Trapez) ([6]; group A (n 6), mean x̄, capsule single dose, 720 min): 69,55 mg/lx12h
- tmax ([6]; mean of all subjects, 200 mg capsule oral): 33 Minuten and 33,59 Minuten
- AUC ([6]; mean of all subjects, trapezoidal rule, 200 mg capsule oral, 720 min): 56,45 mg/1 x 12 h
- Verzögerungszeit (lag-Time) der Resorption ([6]; mean, 200 mg capsule oral): 2,33 Minuten
- Cmax [7]: 23,0 ± 5,2 µg/ml
